In patent US12552747B2, “Amino acid derivative containing non-steroidal anti-inflammatory drug structure and preparation method and application thereof” (priority 2020, dated 2026):
Marks after values point to notes of the source that are not given here.

Key:
[1] = tested on: Liver cancer HepG-2 cells; assay: In vitro antitumor activity test (MTT), HepG-2; assay type: cell-based; conditions: Homo sapiens, HepG2; Liver cancer HepG-2, MTT, 24 h
Experimental: (§1) 13 human tumor cell lines were selected and cultured in RPMI-1640 medium (Gibco company) containing 10% inactivated fetal bovine serum, 100 U/ml penicillin and 100 U/ml streptomycin, cultured at 37° C. in a 5% CO2 incubator, and passaged once every 2 days. Using the MTT method, cells in the logarithmic growth phase were digested with 0.25% trypsin, centrifuged at 1000 r/min for 5 min, 8×10^3 cells were added to each well, and seeded in a 96-well plate, and 180 μl of cell suspension was added to each well, and a blank was set at the same time. The 96-well plate inoculated with tumor cells was placed in a carbon dioxide incubator for 24 hours, and then 20 μl of the drug was added, and an equal volume of culture medium was added to the blank control well, and the drug was divided into 8 concentrations from 50 μg/L to 0.4 μg/L. Three duplicate wells were set for each drug concentration and placed in an incubator for 24 h. 10 μl of MTT solution (5 mg/ml) was added to each well, and the culture was continued for 4 h. The supernatant was aspirated and discarded, 100 μl of dimethyl sulfoxide (DMSO) solution was added to each well, placed on a micro shaker for 10 min, and the absorbance (A value) was measured at a wavelength of 492 nm in a microplate reader, and the inhibition rate of the drug on tumor cells was calculated according to the following formula.
(§2) In this test, the IC50 value of the compound on tumor cells was calculated by the Origin software according to the inhibition rate of the compound. AC-201 in the following table was the abbreviation of PL-AC-201, and so on.

[2] = tested on: Human osteosarcoma MG63 cells; assay: In vitro antitumor activity test (MTT), MG63; assay type: cell-based; conditions: MG-63, 24 h
Experimental: as §1, §2

human red blood cells = assay: Detection of hemolytic activity; assay type: cell-based
Experimental: 2-3 ml of human blood was drawn using an anticoagulant tube, thoroughly mixed, and kept at 4° C. for later use. 2 ml of blood was aspirated and added with 2-3 ml of PBS, followed by gently pipetting and centrifugation for 5 min at 1000 rpm, which was repeated 3-4 times. After the last centrifugation, PBS was aspirated, PBS was added to 40 ml (20 times the volume), and the number of blood cells at this time was 2×10^8 cells/ml. The red blood cell suspension was added to the plate (U-shaped 96-well plate), and 70 μl/well was used as a negative well. Only PBS was added to blank wells, 140 μl/well. 2 ml of the red blood cell suspension was centrifuged, PBS was discarded, 2 ml of pure water was added, mixed well, and 140 μl/well was used as a positive well. The diluted polypeptide solutions of different concentrations were added to the plate, 70 μl/well. Incubated at 37° C., 87 rpm, shaken for 2h, centrifuged for 5 min at 3000 rpm. The OD value measured by microplate reader: After centrifugation, 90 μl of supernatant was drawn and transferred to a flat-bottom 96-well plate, and the OD value at 578 nm was measured by microplate reader. ODtest-OD negative >0.1 (the first concentration that met the conditions was MHC).

[3] = tested on: Breast cancer MCF-7 cells; assay: In vitro antitumor activity test (MTT), MCF-7; assay type: cell-based; conditions: Homo sapiens, MCF7; Breast cancer MCF-7, MTT, 24 h
Experimental: as §1, §2

SK-hep1 liver tumors = assay: Transplanted tumor in nude mice, intraperitoneal, SK-hep1; assay type: in vivo, BALB/c nude mice; conditions: 8 administrations; for Tumor inhibition rate / Tumor weight: SK-hep1, 5 mg/kg i.p. once every 3 days; for Body Weight After administration: SK-hep1 tumor-bearing BALB/c mice, 5 mg/kg i.p. once every 3 days
Experimental: (§3) BALB/c nude mice were used to inoculate Bel-7402, HepG-2 and SK-hep1 liver tumors according to the transplanted tumor research method under aseptic operation, and the cell density was not less than 5×10^6/ml, 0.2 ml was inoculated subcutaneously in the axilla of the right hind limb of each mouse. After the cells were inoculated, the cells were administered intraperitoneally (concentration: 5 mg/kg), once every 3 days, for a total of 8 administrations. After the 2nd day of drug withdrawal, all tumor-bearing mice were sacrificed, and their body weight, tumor weight and tumor inhibition were weighed.

Colon cancer HT29 cells = assay: In vitro antitumor activity test (MTT), HT29; assay type: cell-based; conditions: Homo sapiens, HT-29, 24 h
Experimental: as §1, §2

Lung cancer A549 cells = assay: In vitro antitumor activity test (MTT), A549; assay type: cell-based; conditions: Homo sapiens, 24 h
Experimental: as §1, §2

[4] = tested on: Pancreatic cancer Bxpc-3 cells; assay: In vitro antitumor activity test (MTT), Bxpc-3; assay type: cell-based; conditions: Homo sapiens; Pancreatic cancer Bxpc-3, MTT, 24 h
Experimental: as §1, §2

Lung cancer H460 cells = assay: In vitro antitumor activity test (MTT), H460; assay type: cell-based; conditions: Homo sapiens, NCI-H460, 24 h
Experimental: as §1, §2

Bel-7402 liver tumors = assay: Transplanted tumor in nude mice, intraperitoneal, Bel-7402; assay type: in vivo, BALB/c nude mice; conditions: 8 administrations; for Tumor inhibition rate / Tumor weight: Bel-7402, 5 mg/kg i.p. once every 3 days; for Body Weight After administration: Bel-7402 tumor-bearing BALB/c mice, 5 mg/kg i.p. once every 3 days
Experimental: as §3

[5] = tested on: Liver cancer SK-hep1 cells; assay: In vitro antitumor activity test (MTT), SK-hep1; assay type: cell-based; conditions: Homo sapiens, 24 h
Experimental: as §1, §2

Melanoma B16 cells = assay: In vitro antitumor activity test (MTT), B16; assay type: cell-based; conditions: 24 h
Experimental: as §1, §2

[6] = tested on: Liver cancer Bel-7402 cells; assay: In vitro antitumor activity test (MTT), Bel-7402; assay type: cell-based; conditions: Homo sapiens; Liver cancer Bel-7402, MTT, 24 h
Experimental: as §1, §2

[7] = Acute toxicity test of single administration to ICR mice; conditions: mouse, in vivo, intravenous, single tail vein injection, observed 7 days
Experimental: ICR mice, 18-22 g, were raised in a common-grade animal room, fed with common feed, and ingested freely. The group distance and dose were determined after exploring the Dm and Dn of the compounds of the examples. Five concentrations of the compounds of the examples were formulated at the desired dose. The corresponding doses of drugs were injected into the tail vein according to body weight, and the blank control group was injected with normal saline. Immediately after administration, the performance and death of each animal were observed and recorded, and the possible toxic reaction or death of animals within 7 days after a single administration was observed and recorded.

Lung cancer H1299 cells = assay: In vitro antitumor activity test (MTT), H1299; assay type: cell-based; conditions: Homo sapiens, NCI-H1299, 24 h
Experimental: as §1, §2

[8] = tested on: Cervical cancer Hela cells; assay: In vitro antitumor activity test (MTT), Hela; assay type: cell-based; conditions: Homo sapiens, 24 h
Experimental: as §1, §2

Lung cancer H292 cells = assay: In vitro antitumor activity test (MTT), H292; assay type: cell-based; conditions: Homo sapiens, NCI-H292, 24 h
Experimental: as §1, §2

[9] = tested on: 13 human tumor cell lines; assay: Average IC50 over the tumor cell lines (MTT); assay type: cell-based; conditions: mean IC50 for each tumor, read-out: AverageIC50
Experimental: as §1, §2
The ratio of the hemolytic concentration MHC of the compound to the mean IC50 for each tumor was referred to as the therapeutic index (TI). The safety of the compound was evaluated by the therapeutic index. The higher the therapeutic index, the greater the safety range of the compound.

HepG-2 liver tumors = assay: Transplanted tumor in nude mice, intraperitoneal, HepG-2; assay type: in vivo, BALB/c nude mice; conditions: 8 administrations; for Tumor inhibition rate / Tumor weight: HepG-2, 5 mg/kg i.p. once every 3 days; for Body Weight After administration: HepG-2 tumor-bearing BALB/c mice, 5 mg/kg i.p. once every 3 days
Experimental: as §3

[10] = human red blood cells, 37° C., 2h, first concentration with ODtest-OD negative >0.1

Structure (SMILES)	IC50 [1]	IC50 [2]	MHC (human red blood cells; hemolytic concentration, in nM)	MHC (human red blood cells; [10])	IC50 [3]	IC50 (Colon cancer HT29 cells)	IC50 (Lung cancer A549 cells)	IC50 [4]	IC50 (Lung cancer H460 cells)	IC50 [5]	IC50 (Melanoma B16 cells)	IC50 [6]	LD50 at 7 days [7]	IC50 (Lung cancer H1299 cells)	IC50 [8]	IC50 (Lung cancer H292 cells)	IC50 [9]	Tumor inhibition rate (HepG-2 liver tumors)	Tumor weight (HepG-2 liver tumors)	Body Weight After administration (HepG-2 liver tumors)	further results
CC(=O)Oc1ccccc1C(=O)NC(Cc1ccc(-c2ccccc2)cc1)C(=O)NC1CC(C)(C)NC(C)(C)C1 (stereo not drawn) [PL-AC-201]	16.1 nM	24.8 nM	5.8e+06 nM	3000 µg/mL	24.3 nM	35.9 nM	29.9 nM	52.1 nM	21.9 nM	16.2 nM	29.8 nM	50.2 nM	27.2 mg/kg	23.7 nM	19.5 nM	22.3 nM	28.2 nM	69.3** %	506.9 ± 9.4 mg	22.9 ± 1.4 g	Tumor inhibition rate (SK-hep1 liver tumors): 61.2** %; Tumor weight (SK-hep1 liver tumors): 434.7 ± 9.4 mg; Body Weight After administration (SK-hep1 liver tumors): 23.7 ± 1 g; Tumor inhibition rate (Bel-7402 liver tumors): ^ΔΔ66.2** %; Tumor weight (Bel-7402 liver tumors): 268.1 ± 9.6 mg; Body Weight After administration (Bel-7402 liver tumors): 23.2 ± 1.0 g
CC1(C)CC(NC(=O)C(Cc2ccc(-c3ccccc3)cc2)NC(=O)Cc2ccccc2Nc2c(Cl)cccc2Cl)CC(C)(C)N1 (stereo not drawn) [PL-AC-203]	16 nM	26 nM	3e+06 nM	2000 µg/mL	23.1 nM	37 nM	24.2 nM	49.4 nM	20.8 nM	22.6 nM	30.1 nM	45.4 nM	39.8 mg/kg	20.5 nM	20 nM	24.9 nM	27.7 nM	^ΔΔ72.4** %	455.8 ± 9.9 mg	22.7 ± 1.7 g	Tumor inhibition rate (SK-hep1 liver tumors): ^ΔΔ68.3** %; Tumor weight (SK-hep1 liver tumors): 355.2 ± 1.2 mg; Body Weight After administration (SK-hep1 liver tumors): 24.7 ± 0.5 g; Tumor inhibition rate (Bel-7402 liver tumors): 58.7** %; Tumor weight (Bel-7402 liver tumors): 327.4 ± 10.4 mg; Body Weight After administration (Bel-7402 liver tumors): 24.1 ± 0.9 g
COc1ccc2cc(C(C)C(=O)NC(Cc3ccc(-c4ccccc4)cc3)C(=O)NC3CC(C)(C)NC(C)(C)C3)ccc2c1 (stereo not drawn) [PL-AC-202]	15.8 nM	24.1 nM	5.1e+06 nM	3000 µg/mL	21.1 nM	32.5 nM	23.2 nM	35.1 nM	18.5 nM	11.5 nM	28.4 nM	45.6 nM	34.8 mg/kg	19.8 nM	16.1 nM	20.1 nM	24 nM	^ΔΔ75.4** %	406.2 ± 5.9 mg	22.8 ± 0.8 g	Tumor inhibition rate (SK-hep1 liver tumors): ^ΔΔ71.7** %; Tumor weight (SK-hep1 liver tumors): 317.1 ± 8.7 mg; Body Weight After administration (SK-hep1 liver tumors): 24.9 ± 1.0 g; Tumor inhibition rate (Bel-7402 liver tumors): ^ΔΔ73.1** %; Tumor weight (Bel-7402 liver tumors): 213.3 ± 9.3 mg; Body Weight After administration (Bel-7402 liver tumors): 22.9 ± 1.1 g
COc1ccc2c(c1)c(CC(=O)NC(Cc1ccc(-c3ccccc3)cc1)C(=O)NC1CC(C)(C)NC(C)(C)C1)c(C)n2C(=O)c1ccc(Cl)cc1 (stereo not drawn) [PL-AC-205]	16.2 nM	25.7 nM	4.2e+06 nM	3000 µg/mL	23.2 nM	37 nM	24.5 nM	45.3 nM	20.3 nM	12.4 nM	31.7 nM	< 38.2 nM	35.6 mg/kg	20.3 nM	19.5 nM	27.4 nM	25.3 nM	^Δ71.8** %	465.6 ± 5.9 mg	21.9 ± 1.2 g	Tumor inhibition rate (SK-hep1 liver tumors): 62.0** %; Tumor weight (SK-hep1 liver tumors): 425.8 ± 10.7 mg; Body Weight After administration (SK-hep1 liver tumors): 22.2 ± 0.9 g; Tumor inhibition rate (Bel-7402 liver tumors): ^ΔΔ69.4** %; Tumor weight (Bel-7402 liver tumors): 242.8 ± 6.6 mg; Body Weight After administration (Bel-7402 liver tumors): 23.9 ± 0.6 g
CC(C(=O)NC(Cc1ccc(-c2ccccc2)cc1)C(=O)NC1CC(C)(C)NC(C)(C)C1)c1cccc(C(=O)c2ccccc2)c1 (stereo not drawn) [PL-AC-206]	16.1 nM	24.9 nM	4.9e+06 nM	3000 µg/mL	22.5 nM	37.4 nM	27.5 nM	37.7 nM	20 nM	15.7 nM	30.1 nM	< 38.2 nM	31.7 mg/kg	20.2 nM	19.2 nM	24.1 nM	24.6 nM	^ΔΔ74.6** %	468.9 ± 2.2 mg	23.5 ± 1.1 g	Tumor inhibition rate (SK-hep1 liver tumors): ^ΔΔ69.9** %; Tumor weight (SK-hep1 liver tumors): 337.3 ± 6.1 mg; Body Weight After administration (SK-hep1 liver tumors): 23.0 ± 1.5 g; Tumor inhibition rate (Bel-7402 liver tumors): ^ΔΔ71.4** %; Tumor weight (Bel-7402 liver tumors): 226.8 ± 9.1 mg; Body Weight After administration (Bel-7402 liver tumors): 23.8 ± 1.3 g
C/C(=C1/c2ccc(F)cc2C(CC(=O)NC(Cc2ccc(-c3ccccc3)cc2)C(=O)NC2CC(C)(C)NC(C)(C)C2)C1C)c1ccc([S+](C)[O-])cc1 (stereo not drawn) [PL-AC-204]	15.9 nM	24.5 nM	4.1e+06 nM	3000 µg/mL	23.1 nM	37.4 nM	29.8 nM	49.4 nM	21.6 nM	23.6 nM	30.5 nM	40.7 nM	29.9 mg/kg	21.6 nM	19.2 nM	27.6 nM	28.1 nM	65.1** %	576.3 ± 10.7 mg	23.1 ± 1.0 g	–
